Measured values: patent US7091033B2, “Array of toxicologically relevant canine genes and uses thereof” (Phase-1 Molecular Toxicology, Inc., priority 2000, dated 2006)

Tested on: canine genes in a canine array (Canine kidney)
Experiment: Canine array fold induction of canine genes in kidney of dogs dosed with an agent (Table 11)
Assay type: in vivo
Details: Canine kidney, 0.8 mg/kg, 2 days
Excerpt: Table 11 depicts the fold induction for canine genes in a canine array.

C[C@@H]1[C@H](O)[C@@H](C)/C=C/C=C/C=C/C=C/C=C/C=C/C=C/[C@H](O[C@@H]2O[C@H](C)[C@@H](O)[C@H](N)[C@@H]2O)C[C@@H]2O[C@](O)(C[C@@H](O)C[C@@H](O)[C@H](O)CC[C@@H](O)C[C@@H](O)CC(=O)O[C@H]1C)C[C@H](O)[C@H]2C(=O)O [Amphoteracin-B]
2.2: CD40 ligand fold induction
1.5: Phase-1 CCT-84 fold induction | Phase-1 CCT-91 fold induction
1.2: Caveolin-1 fold induction | Cytochrome P450 2C41 fold induction | Cytochrome P450 3A fold induction | GRP94 fold induction | Glucose-regulated protein 94 #1 fold induction | Interleukin-8 fold induction | Mek5 fold induction | SHB (Src homology 2 protein) fold induction | c-erb B-2 fold induction | p53 fold induction
1.1: Beta-glucuronidase fold induction | Cytochrome P450 2B fold induction | Glucose-regulated protein 94 #2 fold induction | Phase-1 CCT-11 fold induction | Phase-1 CCT-59 fold induction | Phase-1 CCT-63 fold induction | Phase-1 CCT-65 fold induction | Phase-1 CCT-66 fold induction | Phase-1 CCT-68 fold induction | Phase-1 CCT-72 fold induction | Phase-1 CCT-73 fold induction | Phase-1 CCT-74 fold induction | Phase-1 CCT-78 fold induction | Phase-1 CCT-94 fold induction | Rab2 fold induction | Rab5 fold induction | Rab7 fold induction | UV excision repair protein RAD 23 (XP-C) fold induction | ZAP36/annexin IV fold induction
1.3: Glucose transporter fold induction | Phase-1 CCT-60 fold induction | Ubiquitin fold induction
1.4: Phase-1 CCT-92 fold induction | Prostaglandin D synthase fold induction
1.6: Catalase fold induction | Cytochrome P450 2D fold induction | Keratinocyte growth factor fold induction
3.1: Metallothionein 1 fold induction
5.3: Phenol sulfotransferase fold induction
3.5: Tumor necrosis factor-alpha fold induction
5.9: Interleukin-10 fold induction
2.1: Caveolin-2 fold induction | Paraoxonase2 (PON2) fold induction
1.0: BR-cadherin fold induction | Phase-1 CCT-87 fold induction
1.8: Glutathione S-transferase alpha subunit fold induction
